Where two headings read alike, the source gives them in different places.
Legend:
[1] = tested on: HIVIDV-5 μM; assay: microbe, parasite or virus in culture; type: cell-based, HIV-1
[2] = tested on: HIVATV-5 μM; assay: microbe, parasite or virus in culture; type: cell-based, HIV-1
[3] = tested on: HIVAPV-5 μM; assay: microbe, parasite or virus in culture; type: cell-based, HIV-1
[4] = tested on: HIVTPV-15 μM; assay: microbe, parasite or virus in culture; type: cell-based, HIV-1
[5] = tested on: HIVNFV-5 μM; assay: microbe, parasite or virus in culture; type: cell-based, HIV-1
[6] = tested on: wild-type HIV-1NL4-3; assay: Antiviral p24 assay in MT-4 cells, wild-type HIV-1NL4-3; type: cell-based
[7] = tested on: HIVDRV^RP20; assay: microbe, parasite or virus in culture; type: cell-based, HIV-1; conditions: for fold change of IC50 relative to HIV-1NL4-3: HIVDRV^RP20 vs wild type
[8] = tested on: HIVDRV^RP30; assay: microbe, parasite or virus in culture; type: cell-based, HIV-1; conditions: for fold change of IC50 relative to HIV-1NL4-3: HIVDRV^RP30 vs wild type
[9] = tested on: HIVDRV^RP51; assay: microbe, parasite or virus in culture; type: cell-based, HIV-1; conditions: for fold change of IC50 relative to HIV-1NL4-3: HIVDRV^RP51 vs wild type
[10] = tested on: HIVSQV-5 μM; assay: microbe, parasite or virus in culture; type: cell-based, HIV-1
[11] = tested on: HIVLPV-5 μM; assay: microbe, parasite or virus in culture; type: cell-based, HIV-1
[12] = molecular target: HIV-1 protease (Human immunodeficiency virus type 1 group M subtype B, UniProt P04585); assay: HIV-1 protease inhibitory activity, assay protocol of Toth and Marshall; type: biochemical; conditions: as printed in text or footnote
[13] = molecular target: dimerization of HIV-1 protease subunits (Human immunodeficiency virus type 1 group M subtype B, UniProt P12497); assay: FRET-based HIV-1 expression assay of protease dimerization in COS-7 cells; type: cell-based
[14] = brain concentration 32.6 nM at 360 min; ref [23]; cited from earlier work
[15] = tested on: HIVLAI; assay: Antiviral activity in MT-2 human T-lymphoid cells exposed to HIVLAI; type: cell-based, HIV-1; conditions: MT-2/HIVLAI
[16] = read-out: Mean IC50 ± SD, MT-4 cells, HIVATV-5 μM, p24 assay
[17] = read-out: IC50 ± SD, MT-4 cells, HIVNL4-3 WT, p24 assay
[18] = read-out: IC50 ± SD, MT-4 cells, HIVDRV^RP20, p24 assay
[19] = read-out: IC50 ± SD, MT-4 cells, HIVDRV^RP30, p24 assay
[20] = read-out: IC50 ± SD, MT-4 cells, HIVDRV^RP51, p24 assay
[21] = Human immunodeficiency virus 1, MT4, read-out: Mean IC50 ± SD
[22] = Human immunodeficiency virus 1, MT4, read-out: IC50 ± SD

Row | Structure (SMILES) | fold-change of IC50 vs HIVNL4-3 WT ([1]; HIVIDV-5 μM) [fold] | fold-change of IC50 vs HIVNL4-3 WT ([2]; HIVATV-5 μM) [fold] | IC50 [2, 16] [nM] | fold-change of IC50 vs HIVNL4-3 WT ([3]; HIVAPV-5 μM) [fold] | fold-change of IC50 vs HIVNL4-3 WT ([4]; HIVTPV-15 μM) [fold] | fold-change of IC50 vs HIVNL4-3 WT ([5]; HIVNFV-5 μM) [fold] | IC50 [6, 17] [nM] | fold change of IC50 relative to HIV-1NL4-3 [7] [fold] | IC50 [7, 18] [nM] | fold change of IC50 relative to HIV-1NL4-3 [8] [fold] | IC50 [8, 19] [nM] | fold change of IC50 relative to HIV-1NL4-3 [9] [fold] | IC50 [9, 20] [nM] | fold-change of IC50 vs HIVNL4-3 WT ([10]; HIVSQV-5 μM) [fold] | fold-change of IC50 vs HIVNL4-3 WT ([11]; HIVLPV-5 μM) [fold] | Ki [12] [nM] | further results
1 | COC(=O)N[C@H](C(=O)N[C@@H](Cc1ccccc1)[C@@H](O)CN(Cc1ccc(-c2ccccn2)cc1)NC(=O)[C@@H](NC(=O)OC)C(C)(C)C)C(C)(C)C [ATV] | 11 | > 192 | > 1000 | 0.5 | > 192 | 3.7 | 5.2 ± 0.3 | > 192 | > 1000 | > 192 | > 1000 | > 192 | > 1000 | 105 | 7 | – | IC50 ([1]; read-out: Mean IC50 ± SD, MT-4 cells, HIVIDV-5 μM, p24 assay): 59 ± 13 nM; IC50 ([3]; read-out: Mean IC50 ± SD, MT-4 cells, HIVAPV-5 μM, p24 assay): 2.4 ± 0.7 nM; IC50 ([4]; read-out: Mean IC50 ± SD, MT-4 cells, HIVTPV-15 μM, p24 assay): > 1000 nM; IC50 ([5]; read-out: Mean IC50 ± SD, MT-4 cells, HIVNFV-5 μM, p24 assay): 19 ± 1 nM; IC50 ([10]; read-out: Mean IC50 ± SD, MT-4 cells, HIVSQV-5 μM, p24 assay): 548 ± 177 nM; IC50 ([11]; read-out: Mean IC50 ± SD, MT-4 cells, HIVLPV-5 μM, p24 assay): 36 ± 9 nM
2 | CC(C)CN(C[C@@H](O)[C@H](Cc1ccccc1)NC(=O)O[C@H]1CO[C@H]2OCC[C@H]21)S(=O)(=O)c1ccc(N)cc1 [DRV, darunavir] | – | – | – | – | – | – | – | – | – | – | – | – | – | – | – | – | IC50 [1, 21]: 42 ± 1 nM; IC50 [2, 21]: 26 ± 1 nM; IC50 [3, 21]: 43 ± 22 nM; IC50 [4, 21]: 41 ± 3 nM; IC50 [5, 21]: 6.1 ± 0.8 nM; IC50 [6, 22]: 3.7 ± 0.7 nM; IC50 [7, 22]: 60 ± 6 nM; IC50 [8, 22]: 134 ± 43 nM; IC50 [9, 22]: 4670 ± 1260 nM; IC50 [10, 21]: 22 ± 6 nM; IC50 [11, 21]: 275 ± 64 nM
3 | CC(C)CN(C[C@@H](O)[C@H](Cc1cc(F)cc(F)c1)NC(=O)O[C@H]1C2CO[C@H]3OC[C@@H]1C3C2)S(=O)(=O)c1ccc(N)cc1 (stereo partly drawn) [Inhibitor 4, (3S,7 aS,8S)-Hexahydro-4H-3,5-methanofuro[2,3-b]pyran-8-yl((2S,3R)-4-((4-amino-N-isobutylphenyl)sulfonamido)-1-(3,5-difluorophenyl)-3-hydroxybutan-2-yl)carbamate] | – | – | – | – | – | – | 5.9 ± 0.4 | 4 | 24 ± 9 | 1.9 | 11 ± 13 | 82 | 486 ± 52 | – | – | 0.004 | –
4 | CC(C)CN(C[C@@H](O)[C@H](Cc1cc(F)cc(F)c1)NC(=O)O[C@H]1C2CO[C@H]3OC[C@@H]1C3C2)S(=O)(=O)c1ccc2nc(NC3CC3)sc2c1 (stereo partly drawn) [Inhibitor 5, (3S,7 aS,8S)-Hexahydro-4H-3,5-methanofuro[2,3-b]pyran-8-yl((2S,3R)-4-((2-(cyclopropylamino)-N-isobutylbenzo[d]thiazole)-6-sulfonamido)-1-(3,5-difluorophenyl)-3-hydroxybutan-2-yl)carbamate] | 0.02 | 1.3 | 0.02 ± 0.01 | 0.0006 | 0.02 | 0.04 | 0.016 ± 0.017 | 0.1 | 0.0016 ± 0.002 | 1 | 0.015 ± 0.015 | 175 | 2.8 ± 0.2 | 0.01 | 0.0002 | 0.014 | concentration at which dimerization of protease subunits is blocked [13]: 0.1 nM; brain drug level relative to its IC50 value [14]: ~1880 fold; fold potency enhancement of antiviral IC50 over DRV ([15]; vs DRV): more than 150 fold; fold improvement of antiviral IC50 over compound 4 ([15]; vs compound 4): 100 fold; fold more potent than inhibitor 3 (antiviral) ([15]; vs inhibitor 3): over 15 fold
